Calls of active or inactive are those of the source. The rule behind the calls is not given here.
System: rodent lifetime carcinogenesis bioassay, tumor incidence TD50
Assay: carcinogenic potency in animals, long-term in vivo studies, CPDB compilation (AID 1745844)
[1] = mouse, strain B6C3F1, females, in feed, site: any site (literature study), lesion: several types, types named in the paper, dosed 103 weeks, study length 105 weeks
[2] = rat, strain Wistar, males, in feed, site: liver, lesion: hepatocellular carcinoma, dosed 116 weeks, study length 116 weeks

In the case of Cc1cc(N=Nc2c(O)ccc3ccccc23)c(S(=O)(=O)O)cc1Cl, the TD50 [1] is reported as 18200 mg/kg/day (inactive), the TD50 (mouse, strain B6C3F1, females, in feed, site: liver, lesion: hepatocellular adenoma + hepatocellular carcinoma + neoplastic nodule, dosed 103 weeks, study length 105 weeks) is reported as 9240 mg/kg/day and the TD50 (mouse, strain B6C3F1, females, in feed, site: lung, lesion: alveolar/bronchiolar adenoma + alveolar/bronchiolar carcinoma, dosed 103 weeks, study length 105 weeks) is reported as 9200 mg/kg/day. For the same molecule, the TD50 (mouse, strain B6C3F1, males, in feed, site: any site (literature study), lesion: several types, types named in the paper, dosed 103 weeks, study length 104 weeks) was 2120 mg/kg/day (inactive), the TD50 (mouse, strain B6C3F1, males, in feed, site: liver, lesion: hepatocellular adenoma + hepatocellular carcinoma + neoplastic nodule, dosed 103 weeks, study length 104 weeks) was 781 mg/kg/day and the TD50 (mouse, strain B6C3F1, males, in feed, site: lung, lesion: alveolar/bronchiolar adenoma + alveolar/bronchiolar carcinoma, dosed 103 weeks, study length 104 weeks) was 5390 mg/kg/day. For the same molecule, the TD50 (rat, strain Fischer 344, females, in feed, site: liver, lesion: hepatocellular adenoma + hepatocellular carcinoma + neoplastic nodule, dosed 103 weeks, study length 104 weeks) was 1140 mg/kg/day, the TD50 (rat, strain Fischer 344, females, in feed, site: liver, lesion: neoplastic nodule, dosed 103 weeks, study length 104 weeks) was 1140 mg/kg/day and the TD50 (rat, strain Fischer 344, males, in feed, site: any site (literature study), lesion: several types, types named in the paper, dosed 103 weeks, study length 104 weeks) was 331 mg/kg/day. For the same molecule, the TD50 (rat, strain Fischer 344, males, in feed, site: liver + spleen, lesion: hepatocellular carcinoma + neoplastic nodule + fibrosarcoma + leiomyosarcoma + osteosarcoma + sarcoma, NOS, dosed 103 weeks, study length 104 weeks) was 104 mg/kg/day, the TD50 (rat, strain Fischer 344, males, in feed, site: liver, lesion: hepatocellular adenoma + hepatocellular carcinoma + neoplastic nodule, dosed 103 weeks, study length 104 weeks) was 357 mg/kg/day and the TD50 (rat, strain Fischer 344, males, in feed, site: liver, lesion: hepatocellular carcinoma + neoplastic nodule, dosed 103 weeks, study length 104 weeks) was 357 mg/kg/day. The TD50 (rat, strain Fischer 344, males, in feed, site: liver, lesion: neoplastic nodule, dosed 103 weeks, study length 104 weeks) was 265 mg/kg/day, the TD50 (rat, strain Fischer 344, males, in feed, site: spleen, lesion: fibrosarcoma + leiomyosarcoma + osteosarcoma + sarcoma, NOS, dosed 103 weeks, study length 104 weeks) was 146 mg/kg/day and the TD50 (rat, strain Fischer 344, males, in feed, site: spleen, lesion: fibrosarcoma, dosed 103 weeks, study length 104 weeks) was 211 mg/kg/day. For the same molecule, the TD50 (rat, strain Fischer 344, males, in feed, site: spleen, lesion: osteosarcoma, dosed 103 weeks, study length 104 weeks) was 728 mg/kg/day, the carcinogen call (rat, strain Osborne-Mendel, females, in feed, site: pituitary gland, lesion: adenoma, dosed 108 weeks, study length 108 weeks) was “negative (inactive)” and the carcinogen call (rat, strain Osborne-Mendel, males, in feed, site: all sites, lesion: fibrosarcoma, dosed 108 weeks, study length 108 weeks) was “negative (inactive)”. The TD50 (rat, strain Osborne-Mendel, males, in feed, site: testis, lesion: interstitial-cell adenoma, dosed 108 weeks, study length 108 weeks) was 28600 mg/kg/day (inactive).
With O=C(Nc1ccc2c(c1)Cc1ccccc1-2)C(F)(F)F the TD50 (rat, strain Buffalo, females, in feed, site: ear duct, lesion: squamous-cell carcinoma, dosed 53 weeks, study length 54 weeks) was 4.94 mg/kg/day, the TD50 (rat, strain Buffalo, females, in feed, site: liver, lesion: hepatoma, dosed 53 weeks, study length 54 weeks) was 1.9 mg/kg/day and the TD50 (rat, strain Buffalo, females, in feed, site: mammary gland, lesion: adenocarcinoma, dosed 53 weeks, study length 54 weeks) was 1.62 mg/kg/day.
In the case of [Cl][Fe]([Cl])[Cl], the TD50 (rat, strain F344/DuCrj, females, in drinking water, site: any site (literature study), lesion: one or several types, types not named, dosed 104 weeks, study length 112 weeks) is reported as 505 mg/kg/day (inactive), the carcinogen call (rat, strain F344/DuCrj, females, in drinking water, site: liver, lesion: neoplastic nodule, dosed 104 weeks, study length 112 weeks) is reported as “negative (inactive)” and the carcinogen call (rat, strain F344/DuCrj, males, in drinking water, site: any site (literature study), lesion: one or several types, types not named, dosed 104 weeks, study length 112 weeks) is reported as “negative (inactive)”. For the same molecule, the TD50 (rat, strain F344/DuCrj, males, in drinking water, site: liver, lesion: neoplastic nodule, dosed 104 weeks, study length 112 weeks) was 8810 mg/kg/day (inactive).
For CO[C@H]1[C@@H](O)[C@@H](CO)OC(OC2C3CO[C@H]2[C@H](O)C(C)O3)[C@@H]1O (stereo partly specified), the carcinogen call [1] was “negative (inactive)”, the TD50 (mouse, strain B6C3F1, males, in feed, site: any site (literature study), lesion: several types, types named in the paper, dosed 103 weeks, study length 105 weeks) was 54900 mg/kg/day and the TD50 (mouse, strain B6C3F1, males, in feed, site: liver, lesion: hepatocellular adenoma + hepatocellular carcinoma + neoplastic nodule, dosed 103 weeks, study length 105 weeks) was 33100 mg/kg/day. The TD50 (mouse, strain B6C3F1, males, in feed, site: liver, lesion: hepatocellular adenoma, dosed 103 weeks, study length 105 weeks) was 18800 mg/kg/day (inactive), the TD50 (mouse, strain B6C3F1, males, in feed, site: lung, lesion: alveolar/bronchiolar adenoma + alveolar/bronchiolar carcinoma, dosed 103 weeks, study length 105 weeks) was 102000 mg/kg/day and the TD50 (rat, strain Fischer 344, females, in feed, site: adrenal gland, lesion: cortical adenoma, dosed 103 weeks, study length 105 weeks) was 25800 mg/kg/day (inactive). For the same molecule, the TD50 (rat, strain Fischer 344, males, in feed, site: any site (literature study), lesion: several types, types named in the paper, dosed 103 weeks, study length 105 weeks) was 39300 mg/kg/day (inactive) and the TD50 (rat, strain Fischer 344, males, in feed, site: liver, lesion: hepatocellular adenoma + hepatocellular carcinoma + neoplastic nodule, dosed 103 weeks, study length 105 weeks) was 25900 mg/kg/day.
With CCCC1O[C@@H]2C[C@H]3[C@@H]4CCC5=CC(=O)C=C[C@]5(C)[C@H]4[C@@H](O)C[C@]3(C)[C@]2(C(=O)CO)O1 (stereo partly specified) the TD50 (rat, strain Charles River CD (Sprague-Dawley), males, in drinking water, site: liver, lesion: hepatocellular adenoma, dosed 104 weeks, study length 104 weeks) was 0.491 mg/kg/day, the TD50 (rat, strain Charles River CD (Sprague-Dawley), males, in drinking water, site: liver, lesion: hepatocellular carcinoma, dosed 104 weeks, study length 104 weeks) was 0.822 mg/kg/day and the TD50 (rat, strain Charles River CD (Sprague-Dawley), males, in drinking water, site: liver, lesion: several types, types named in the paper, dosed 104 weeks, study length 104 weeks) was 0.291 mg/kg/day.
Clc1cccc(-c2cccc(Cl)c2)c1 showed a TD50 [2] of 157 mg/kg/day.
Work on NC(=O)N(CC(=O)O)N=O yielded a TD50 (rat, strain Donryu, females, in drinking water, site: any site (literature study), lesion: several types, types named in the paper, dosed 68 weeks, study length 68 weeks) of 1.38 mg/kg/day, a TD50 (rat, strain Donryu, females, in drinking water, site: intestine, lesion: several types, types named in the paper, dosed 68 weeks, study length 68 weeks) of 5.37 mg/kg/day and a TD50 (rat, strain Donryu, females, in drinking water, site: mammary gland, lesion: fibroadenoma, dosed 68 weeks, study length 68 weeks) of 2.92 mg/kg/day. For the same molecule, the TD50 (rat, strain Donryu, females, in drinking water, site: mammary gland, lesion: several types, types named in the paper, dosed 68 weeks, study length 68 weeks) was 2.3 mg/kg/day, the TD50 (rat, strain Donryu, females, in drinking water, site: small intestine, lesion: adenocarcinoma, dosed 68 weeks, study length 68 weeks) was 11.6 mg/kg/day and the TD50 (rat, strain Donryu, females, in drinking water, site: small intestine, lesion: adenoma, dosed 68 weeks, study length 68 weeks) was 8.09 mg/kg/day. The TD50 (rat, strain MRC-Wistar, males, in drinking water, site: any site (literature study), lesion: several types, types named in the paper, dosed 74 weeks, study length 130 weeks) was 13.1 mg/kg/day and the TD50 (rat, strain MRC-Wistar, males, in drinking water, site: epidermis, lesion: several types, types named in the paper, dosed 74 weeks, study length 130 weeks) was 34.8 mg/kg/day.
C#C[C@]1(O)CC[C@H]2[C@@H]3CCc4cc(O)ccc4[C@H]3CC[C@@]21C gave a TD50 (rat, strain Slc-Wistar, females, by gavage, site: liver, lesion: hepatocellular carcinoma, dosed 52 weeks, study length 52 weeks) of 0.2 mg/kg/day.
For Clc1ccc(-c2ccc(Cl)c(Cl)c2Cl)c(Cl)c1Cl, the TD50 (rat, strain Sherman COBS, females, in feed, site: liver, lesion: hepatocellular carcinoma, dosed 89 weeks, study length 95 weeks) was 18.3 mg/kg/day, the TD50 (rat, strain Sherman COBS, females, in feed, site: liver, lesion: neoplastic nodule, dosed 89 weeks, study length 95 weeks) was 1.76 mg/kg/day and the TD50 (rat, strain Sherman COBS, females, in feed, site: liver, lesion: several types, types named in the paper, dosed 89 weeks, study length 95 weeks) was 1.04 mg/kg/day. The TD50 (rat, strain Sprague-Dawley, females, in feed, site: liver, lesion: cholangioma, dosed 104 weeks, study length 104 weeks) was 98.2 mg/kg/day, the TD50 (rat, strain Sprague-Dawley, females, in feed, site: liver, lesion: hepatocellular adenoma, dosed 104 weeks, study length 104 weeks) was 6.43 mg/kg/day and the TD50 (rat, strain Sprague-Dawley, females, in feed, site: liver, lesion: hepatocellular carcinoma, dosed 104 weeks, study length 104 weeks) was 41.4 mg/kg/day. For the same molecule, the TD50 (rat, strain Sprague-Dawley, females, in feed, site: liver, lesion: several types, types named in the paper, dosed 104 weeks, study length 104 weeks) was 5.51 mg/kg/day, the TD50 (rat, strain Sprague-Dawley, males, in feed, site: liver, lesion: hepatocellular adenoma, dosed 104 weeks, study length 104 weeks) was 24.8 mg/kg/day and the TD50 (rat, strain Sprague-Dawley, males, in feed, site: liver, lesion: hepatocellular carcinoma, dosed 104 weeks, study length 104 weeks) was 121 mg/kg/day. For the same molecule, the TD50 (rat, strain Sprague-Dawley, males, in feed, site: liver, lesion: several types, types named in the paper, dosed 104 weeks, study length 104 weeks) was 20 mg/kg/day, the TD50 (rat, strain Sprague-Dawley, males, in feed, site: thyroid gland, lesion: follicular-cell adenoma, dosed 104 weeks, study length 104 weeks) was 11.4 mg/kg/day and the TD50 (rat, strain Sprague-Dawley, males, in feed, site: thyroid gland, lesion: follicular-cell carcinoma, dosed 104 weeks, study length 104 weeks) was 232 mg/kg/day. For the same molecule, the TD50 (rat, strain Sprague-Dawley, males, in feed, site: thyroid gland, lesion: several types, types named in the paper, dosed 104 weeks, study length 104 weeks) was 10.3 mg/kg/day and the TD50 [2] was 5.39 mg/kg/day.
Nc1ccc2cc3ccc(N)cc3nc2c1 showed a TD50 (mouse, strain B6C3F1, females, in feed, site: any site (literature study), lesion: several types, types named in the paper, dosed 103 weeks, study length 103 weeks) of 86.2 mg/kg/day, a TD50 (mouse, strain B6C3F1, females, in feed, site: liver, lesion: hepatocellular adenoma + hepatocellular carcinoma + neoplastic nodule, dosed 103 weeks, study length 103 weeks) of 26.4 mg/kg/day and a TD50 (mouse, strain B6C3F1, females, in feed, site: liver, lesion: hepatocellular adenoma + hepatocellular carcinoma, dosed 103 weeks, study length 103 weeks) of 26.4 mg/kg/day. The TD50 (mouse, strain B6C3F1, females, in feed, site: lung, lesion: alveolar/bronchiolar adenoma + alveolar/bronchiolar carcinoma, dosed 103 weeks, study length 103 weeks) was 487 mg/kg/day, the TD50 (mouse, strain B6C3F1, males, in feed, site: liver, lesion: hepatocellular adenoma + hepatocellular carcinoma + neoplastic nodule, dosed 103 weeks, study length 103 weeks) was 248 mg/kg/day and the TD50 (rat, strain Fischer 344, males, in feed, site: large intestine + small intestine, lesion: sarcoma, NOS + adenocarcinoma, NOS + leiomyosarcoma, dosed 109 weeks, study length 109 weeks) was 213 mg/kg/day. For the same molecule, the TD50 (rat, strain Fischer 344, males, in feed, site: liver, lesion: hepatocellular adenoma + hepatocellular carcinoma + neoplastic nodule, dosed 109 weeks, study length 109 weeks) was 254 mg/kg/day and the TD50 (rat, strain Fischer 344, males, in feed, site: liver, lesion: hepatocellular carcinoma + neoplastic nodule, dosed 109 weeks, study length 109 weeks) was 254 mg/kg/day.
In the case of O=NN1CCN(N=O)CC1, the TD50 (mouse, strain C17, females, by gavage, site: forestomach, lesion: squamous-cell carcinoma, dosed 40 weeks, study length 104 weeks) is reported as 4.66 mg/kg/day, the TD50 (mouse, strain C17, females, by gavage, site: uterus, lesion: reticulum-cell neoplasm, type A, dosed 40 weeks, study length 104 weeks) is reported as 4.13 mg/kg/day and the TD50 (mouse, strain C17, males, by gavage, site: forestomach, lesion: squamous-cell carcinoma, dosed 40 weeks, study length 104 weeks) is reported as 2.01 mg/kg/day. For the same molecule, the carcinogen call (mouse, strain Swiss, females, in drinking water, site: any site (literature study), lesion: several types, types named in the paper, dosed 52 weeks, study length 100 weeks) was “positive”, the TD50 (mouse, strain Swiss, males, in drinking water, site: any site (literature study), lesion: several types, types named in the paper, dosed 52 weeks, study length 100 weeks) was 8.24 mg/kg/day and the TD50 (mouse, strain Swiss, males, in drinking water, site: liver, lesion: hepatocellular carcinoma, dosed 52 weeks, study length 100 weeks) was 51.9 mg/kg/day. It also gave a TD50 (mouse, strain Swiss, males, in drinking water, site: lung, lesion: adenoma, dosed 52 weeks, study length 100 weeks) of 8.7 mg/kg/day.
